Results on one molecule are retold here after patent US20220211750A1, “COMPOSITIONS AND METHODS USING A COMBINATION OF CALCIUM AND AT LEAST ONE OF OLEUROPEIN OR METABOLITE THEREOF” (SOCIETE DES PRODUITS NESTLE S.A., priority 2019, published 2022).

The test system of the assay is C2C12-derived myotubes. In words: Mitochondrial calcium rise (mitochondrial aequorin) in caffeine-stimulated C2C12-derived myotubes. It counts as cell-based, mouse. Particulars: evoked by 5 mM caffeine, vs 0.5 mM calcium in the medium. From the text:
To test the effect of Oleuropein, its metabolites and calcium supplementation/deficiency in living cells, the inventors measured mitochondrial calcium elevation in HeLa cells and in myotubes differentiated from both mouse C2C12 cells and human primary adult muscle cells. HeLa cells and C2C12 cells were purchased from ATCC. Human Skeletal Muscle Myoblasts (HSMM) were purchased from Lonza. HSMM were isolated from the upper arm or leg muscle tissue of normal donors and used after the second passage. HeLa cells were seeded in 96-well plates at a density of 50000 cells per well in minimal essential medium (DMEM, Gibco), high glucose, +10% fetal calf serum. C2C12 cells were seeded in 96-well plates at a density of 8000 cells per well in DMEM high glucose (Gibco)+10% fetal calf serum. Myotubes were differentiated from C2C12 cells by growing the cells in DMEM containing 2% horse serum, for 4 days. HSMM were seeded in 96-well plates at a density of 8000 cells per well in DMEM/F-12 (Gibco). […]
For treatment, compounds were directly added to the cell culture or myotubes cultures 2 hours before measurements. Luminescence was measured at the Cytation 3 cell imaging reader (Biotek) or at the FLIPR Tetra Aequorin (Molecular Devices). […] Custom module analysis based on Excel (Microsoft) and GhaphPad Prism 7.02 (GraphPad) software was used for quantification.

SMILES strings stand for the structures.

Regarding `[Ca+2]` [calcium], the “integrated mitochondrial calcium rise, effect of extracellular calcium abundance” value (P<0.05, listed as Ca^2+) is “activates mitochondrial Ca^2+ elevation in a dose/response manner” and the “integrated mitochondrial calcium rise, effect of extracellular calcium abundance” value (P<0.05, listed as Ca′) is “enhances mitochondrial Ca′ elevation in a dose/response manner”.
